Assay results as given in patent publication US11529359B2, “Use of GABAA receptor modulators for treatment of itch” (UNIVERSITÄT ZÜRICH, priority 2016, dated 2022).

Legend:
α-Me-5HT-induced itch = test: α-methyl 5-HT-induced itch (cheek injection) in wild-type mice; type: in vivo, wild-type mice (129X1/SvJ); conditions: 1 mg/kg p.o.; 20 μg α-methyl 5-HT
locomotor activity = test: open field test, locomotor activity / sedation; type: in vivo, wild-type mice
Experimental: After injection, the mice were placed in an open field arena and their activity was recorded for one hour starting one hour after injection.
(§1) Locomotor activity, muscle relaxant effects and motor coordination were assessed as described previously (Ralvenius, W. T., Benke, D., Acuña, M. A., Rudolph, U. & Zeilhofer, H. U. Nature Communications, 2015, 6). […] Motor coordination was assessed with a rotarod accelerating from 4 rpm to 40 rpm within 5 min. […] Fifteen measurements were taken per mouse. To assess muscle relaxation, mice were placed with their forepaws onto a metal horizontal wire placed 20 cm above ground.

[1] = target: T1, α2GABAARs with H→R point mutation in the α2 subunit (Homo sapiens, UniProt P18507+P47869, H129R); test: positive allosteric modulation of H→R point-mutated α2GABAARs in HEK 293 cells; type: cell-based; conditions: 1 μM
T1 construct: expressed in transfected cells; host or cells: HEK 293 cells, transient transfection
Description: (§2) HEK293 cells were transfected using lipofectamine LTX (Dugue, G. P., et al. Neuron, 2009, 61, 126-139). To ensure expression of the γ2 subunit (required for modulation of GABAARs by BDZs) in all recorded cells, the inventors transfected cells with a plasmid expressing the γ2 subunit plus eGFP from an IRES, and only selected eGFP-positive cells for recordings. The transfection mixture contained (in μg): 1 α1, 1 β2, 3 γ2/eGFP (used as a marker of successful transfection) or 1 αx, 1 β3, 3 γ2/eGFP in case of α2, α3, or α5GABAARs. Recordings were made 18-36 hrs after transfection. Whole-cell patch-clamp recordings of GABA-evoked currents were made at room temperature (20-24° C.) and at a holding potential of −60 mV. Recording electrodes were filled with solution containing (in mM): 120 CsCl, 10 EGTA, 10 HEPES (pH 7.40), 4 MgCl2, 0.5 GTP and 2 ATP. The external solution contained (in mM): 150 NaCl, 10 KCl, 2.0 CaCl2, 1.0 MgCl2, 10 HEPES (pH 7.4), and 10 glucose. GABA was applied to the recorded cell using a manually controlled pulse (4-6 s) of a low sub-saturating GABA concentration (ECS). ECs values of GABA were determined for all subunit combinations analyzed. […] Imax was determined as the average maximal current elicited by a concentration of 1 mM GABA. […]

muscle relaxation = test: horizontal wire test (muscle relaxation); type: in vivo, mice; conditions: p.o., 60-120 min after administration
Experimental: as §1

α2β3γ2 GABAARs = target: T2, α2β3γ2 GABAARs (Homo sapiens, UniProt P18507+P47869); test: GABA-evoked currents, recombinant GABAARs in HEK293 cells (α2); type: cell-based; conditions: HEK293 cells transiently transfected
T2 construct: expressed in transfected cells; host or cells: HEK293 cells (ATCC), transient transfection
Description: as §2

[2] = test system: contact dermatitis-induced chronic itch; test: oxazolone contact dermatitis model of chronic itch in wild-type mice; type: in vivo, wild-type C57BL6/J mice
Experimental: Thus, TPA023B is, in accordance with the other findings of the inventors, suitable as an antipruritic substance.
This was independent of the treatment they received from day 7 to day 27.
The inventors sought to confirm the antipruritic efficacy of α2 and α3 GABAA receptor agonists against contact dermatitis-induced chronic itch. To this end, N-desmethyl clobazam, a benzodiazepine with improved activity at α2 versus α1 was assessed for its antipruritic effects (Jensen et al. PLoS One. 2014 Feb. 12; 9(2):e88456.).
Chronic itch was investigated in the contact dermatitis model (Kido-Nakahara, M., et al. J Clin Invest, 2014, 124, 2683-2695). Mice were treated once with 10% oxazolone in acetone/olive oil (4:1 v/v) on the shaved nape of the neck (100 μl) on day 0. After a resting period of 7 days, mice were treated with 1% oxazolone in acetone/olive oil (4:1 v/v) on the nape of the neck (100 μl) every other day for 10 days. On the day of the experiment, mice were injected with drug or vehicle i.p. under short and light isoflurane anesthesia. […]

motor coordination = test: rotarod assay (motor coordination); type: in vivo, mice; conditions: p.o., 60 min after administration
Experimental: as §1

[3] = test system: brain membranes prepared from α1,2,3,5 H→R point mutated mice; type: binding, mice (RRRR); conditions: 4 nM [3H]Ro 15-4513; increasing concentrations; n=4
Experimental: The supernatant was centrifuged for 20 min at 30,000 g and the resulting crude membrane pellet was washed once with buffer. […] Non-specific [^3H]Ro 15-4513 binding was assessed by addition of 10 μM flumazenil to the reaction. Incubation was stopped by rapid vacuum filtration using a semiautomatic cell harvester (Skatron Instruments) and washed filters were subjected to liquid scintillation counting.

T1 sequence (P47869 29-451 H129R): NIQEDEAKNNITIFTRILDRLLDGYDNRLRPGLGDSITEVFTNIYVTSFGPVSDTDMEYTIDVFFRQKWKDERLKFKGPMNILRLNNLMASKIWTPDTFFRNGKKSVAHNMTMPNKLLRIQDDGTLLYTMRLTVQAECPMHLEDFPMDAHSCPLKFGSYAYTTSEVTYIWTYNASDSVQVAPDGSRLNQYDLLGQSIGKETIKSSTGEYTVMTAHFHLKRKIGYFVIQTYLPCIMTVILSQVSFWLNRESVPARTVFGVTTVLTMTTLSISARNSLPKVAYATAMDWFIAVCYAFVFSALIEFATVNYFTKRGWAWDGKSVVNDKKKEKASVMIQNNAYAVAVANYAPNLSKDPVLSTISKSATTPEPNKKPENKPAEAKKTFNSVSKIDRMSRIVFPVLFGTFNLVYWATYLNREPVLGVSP
T1 sequence (P28472 26-473 partner): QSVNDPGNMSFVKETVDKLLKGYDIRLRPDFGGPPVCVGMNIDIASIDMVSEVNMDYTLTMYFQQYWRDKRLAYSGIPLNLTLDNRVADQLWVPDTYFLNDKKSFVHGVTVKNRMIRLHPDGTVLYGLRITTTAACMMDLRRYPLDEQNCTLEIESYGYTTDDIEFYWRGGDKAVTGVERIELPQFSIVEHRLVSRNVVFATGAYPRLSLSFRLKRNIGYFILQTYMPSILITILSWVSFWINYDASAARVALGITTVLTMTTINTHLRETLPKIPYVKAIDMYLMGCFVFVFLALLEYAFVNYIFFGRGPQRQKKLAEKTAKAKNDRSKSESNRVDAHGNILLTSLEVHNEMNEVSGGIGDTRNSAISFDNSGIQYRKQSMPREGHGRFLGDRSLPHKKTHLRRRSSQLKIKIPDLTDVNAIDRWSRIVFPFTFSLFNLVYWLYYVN
T1 sequence (P18507 40-467 limits assumed): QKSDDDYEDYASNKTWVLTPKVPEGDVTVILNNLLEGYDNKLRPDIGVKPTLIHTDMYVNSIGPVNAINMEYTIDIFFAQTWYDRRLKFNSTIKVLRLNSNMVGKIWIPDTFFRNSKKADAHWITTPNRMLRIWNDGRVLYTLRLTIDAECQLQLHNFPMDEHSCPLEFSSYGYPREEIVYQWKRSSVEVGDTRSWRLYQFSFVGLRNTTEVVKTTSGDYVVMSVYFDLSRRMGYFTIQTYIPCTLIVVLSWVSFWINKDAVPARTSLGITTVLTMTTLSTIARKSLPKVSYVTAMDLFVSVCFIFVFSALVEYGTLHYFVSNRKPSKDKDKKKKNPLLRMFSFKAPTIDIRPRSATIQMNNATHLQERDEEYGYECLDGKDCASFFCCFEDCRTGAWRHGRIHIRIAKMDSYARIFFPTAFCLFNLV
T2 sequence (P47869 29-451): as the sequence (P47869 29-451 H129R) above, with R101H counted along it
T2 sequence (P28472 26-473 partner): as the sequence (P28472 26-473 partner) above
T2 sequence (P18507 40-467 limits assumed): as the sequence (P18507 40-467 limits assumed) above

CC(C)(O)c1cnn2c(-c3ccc(F)c(-c4c(F)cccc4C#N)c3)cnc2n1 [TPA023B, 6,2′-difluoro-5′-[3-(1-hydroxy-1-methylethyl)imidazo[1,2-b][1,2,4]triazin-7-yl]biphenyl-2-carbonitrile]
antipruritic action in wild-type mice (α-Me-5HT-induced itch): strong antipruritic actions
locomotor activity in the open field test (locomotor activity; 1 and 3 mg/kg p.o.): increased locomotor activity
sedative effects (locomotor activity; doses up to 3 mg/kg (p.o.)): did not show sedative effects
activity in open field arena vs vehicle (locomotor activity; per oral 10 mg/kg and 30 mg/kg, recorded 1-2 h after injection): significant increase in activity
positive allosteric modulation of H→R point-mutated α2GABAARs [1]: abolished
muscle relaxation in the horizontal wire test (muscle relaxation): did not cause muscle relaxation
activity at the benzodiazepine binding site (potentiation of GABA-induced currents) (α2β3γ2 GABAARs): partial agonistic activity
tolerance development to the antipruritic effects ([2]; 1 mg/kg i.p. for nine consecutive days, d/d vs v/d): exclude tolerance development
scratching bouts directed at the nape of the neck vs vehicle ([2]; 1 mg/kg i.p. on day 18, 15 to 210 min after injection): significant reduction in scratching bouts
scratching bouts on day 28 vs vehicle, independent of pretreatment ([2]; 1 mg/kg i.p. on day 28 after vehicle or 1 mg/kg once daily for nine consecutive days): significant reduction in scratching bouts
motor coordination in the rotarod assay (motor coordination): did not reduce motor coordination
displacement of [3H]Ro 15-4513 binding [3]: failed to displace
